Results on 24 molecules are retold here after patent US9938301B2, “Dihydropyrimido fused ring derivative as HBV inhibitor” (QILU PHARMACEUTICAL CO., LTD., priority 2014, dated 2018).

In one test the test system is HBV DNA in HepG2.2.15 cells. Briefly: HBV in vitro dot-blot hybridization test. The note with it: Hepatitis B virus, HepG2.2.15, dot-blot hybridization assay, read-out: Concentration for 50% inhibition of HBV (EC50)value. The class given is cell-based, Hepatitis B virus. Put shortly: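 HepG2.2.15 cells (4×10^4/well) treated in duplicate with 6 five-fold compound dilutions (1% DMSO final), medium with compound renewed on day 5, cells harvested day 8-9. Intracellular HBV DNA quantified by dot-blot with DIG-labelled probe; % inhibition normalised to 1 μM GLS4 (100%) and DMSO (0%), EC50 fitted.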
Take `CCOC(=O)C1=C2C[C@H](NS(C)(=O)=O)CN2C(c2nccs2)=N[C@@H]1c1ccc(F)cc1Cl` [Example 141]: the EC50 is 500 to 1000 nM.
Consider `CCOC(=O)C1=C2C[C@H](NC(=O)C(F)(F)F)CN2C(c2nccs2)=N[C@H]1c1ccc(F)cc1Cl` [Example 142], for which the EC50 lay within 100 to 500 nM.
`CCOC(=O)C1=C2C[C@H](NS(=O)(=O)CC(=O)O)CN2C(c2nccs2)=N[C@H]1c1ccc(F)cc1Cl` [Example 143]: the EC50 was in the range of 100 to 500 nM.
On to `CCOC(=O)C1=C2C[C@H](NS(=O)(=O)C3COC3)CN2C(c2nccs2)=N[C@H]1c1ccc(F)cc1Cl` [Example 144], for which the EC50 was below 100 nM.
`CCOC(=O)C1=C2C[C@H](NS(C)(=O)=O)CN2C(c2nccs2)=N[C@H]1c1ccc(F)cc1` [Example 145]: the EC50 was in the range of 500 to 1000 nM.
As for `CCOC(=O)C1=C2[C@@H](NS(C)(=O)=O)CCN2C(c2nccs2)=N[C@H]1c1ccc(F)cc1Br` [Example 146], the EC50 lay within 1000 to 5000 nM.
The same measure, in the same setting: for `CCOC(=O)C1=C2[C@H](NS(C)(=O)=O)CCN2C(c2nccs2)=N[C@H]1c1ccc(F)cc1Br` [Example 147] the value was 1000 to 5000 nM.
Still for that read-out and setting: the result for `CCOC(=O)C1=C2C[C@H](NS(C)(=O)=O)CN2C(c2nccs2)=N[C@H]1c1ccc(F)c(F)c1` [Example 148] reads 100 to 500 nM; that for `COC(=O)C1=C2C[C@H](NS(C)(=O)=O)CN2C(c2nccs2)=N[C@H]1c1ccc(F)cc1Cl` [Example 149], below 100 nM.
In the case of `CCOC(=O)C1=C2C[C@H](NS(C)(=O)=O)CN2C(c2nccs2)=N[C@H]1c1ccc(Cl)cc1F` [Example 150], the EC50 is 100 to 500 nM.
As for `CCOC(=O)C1=C2C[C@H](NS(C)(=O)=O)CN2C(c2nccs2)=N[C@H]1c1ccc(Cl)cc1Cl` [Example 151], the EC50 is below 100 nM.
Consider `CC(C)OC(=O)C1=C2C[C@H](NS(C)(=O)=O)CN2C(c2nccs2)=N[C@H]1c1ccc(F)cc1Cl` [Example 152], for which the EC50 lay within 100 to 500 nM.
As to `CCOC(=O)C1=C2C[C@H](NS(=O)(=O)C(F)(F)F)CN2C(c2nccs2)=N[C@H]1c1ccc(F)cc1Cl` [Example 153], the EC50 is below 100 nM.
Same read-out and setting: the result for `CCOC(=O)C1=C2C[C@H](NS(C)(=O)=O)CN2C(c2nncs2)=N[C@H]1c1ccc(F)cc1Cl` [Example 154] reads 100 to 500 nM.
Consider `COC(=O)C1=C2C[C@H](NS(=O)(=O)C(F)(F)F)CN2C(c2nccs2)=N[C@H]1c1ccc(F)cc1Cl` [Example 155], for which the EC50 is below 100 nM.
On to `COC(=O)C1=C2C[C@H](NS(=O)(=O)C3CC3)CN2C(c2nccs2)=N[C@H]1c1ccc(F)cc1Cl` [Example 156], for which the EC50 is below 100 nM.
Turning to `CCOC(=O)C1=C2C[C@H](N(C)S(C)(=O)=O)CN2C(c2nccs2)=N[C@H]1c1ccc(F)cc1Cl` [Example 157], the EC50 was below 100 nM.
As to `CCS(=O)(=O)N[C@H]1CC2=C(C(=O)OC)[C@H](c3ccc(F)cc3Cl)N=C(c3nccs3)N2C1` [Example 158], the EC50 was below 100 nM.
Regarding `COC(=O)C1=C2C[C@H](NS(N)(=O)=O)CN2C(c2nccs2)=N[C@H]1c1ccc(F)cc1Cl` [Example 159], the EC50 was below 100 nM.
In the case of `CNS(=O)(=O)N[C@H]1CC2=C(C(=O)OC)[C@H](c3ccc(F)cc3Cl)N=C(c3nccs3)N2C1` [Example 160], the EC50 was below 100 nM.
With `COC(=O)C1=C2C[C@H](NS(=O)(=O)CCO)CN2C(c2nccs2)=N[C@H]1c1ccc(F)cc1Cl` [Example 161], the EC50 is below 100 nM.
For `COC(=O)C1=C2C[C@H](NC(C)=O)CN2C(c2nccs2)=N[C@H]1c1ccc(F)cc1Cl` [Example 162], the EC50 fell in the range of 100 to 500 nM.
Take `COC(=O)N[C@H]1CC2=C(C(=O)OC)[C@H](c3ccc(F)cc3Cl)N=C(c3nccs3)N2C1` [Example 163]: the EC50 was below 100 nM.
For the molecule `COC(=O)C1=C2C[C@H](NS(C)(=O)=O)CN2C(c2nccs2)=N[C@H]1c1ccc(F)c(Cl)c1` [Example 164], the EC50 was in the range of 1000 to 5000 nM.

The test is the same for the next values; noted with them: Hepatitis B virus, HepG2.2.15, summary list of target compounds, Examples 1-165 (same as Table 2), read-out: BIOACTIVITY (inhibitory actions on HBV DNA, EC50).
As to `CCOC(=O)C1=C2C[C@H](NS(C)(=O)=O)CN2C(c2nccs2)=N[C@@H]1c1ccc(F)cc1Cl` [Example 141], the EC50 lay within 500 to 1000 nM.
In the case of `CCOC(=O)C1=C2C[C@H](NC(=O)C(F)(F)F)CN2C(c2nccs2)=N[C@H]1c1ccc(F)cc1Cl` [Example 142], the EC50 lay in the range of 100 to 500 nM.
Same read-out and setting: the result for `CCOC(=O)C1=C2C[C@H](NS(=O)(=O)CC(=O)O)CN2C(c2nccs2)=N[C@H]1c1ccc(F)cc1Cl` [Example 143] reads 100 to 500 nM.
Same read-out and setting: the result for `CCOC(=O)C1=C2C[C@H](NS(=O)(=O)C3COC3)CN2C(c2nccs2)=N[C@H]1c1ccc(F)cc1Cl` [Example 144] reads below 100 nM; that for `CCOC(=O)C1=C2C[C@H](NS(C)(=O)=O)CN2C(c2nccs2)=N[C@H]1c1ccc(F)cc1` [Example 145], 500 to 1000 nM.
With `CCOC(=O)C1=C2[C@@H](NS(C)(=O)=O)CCN2C(c2nccs2)=N[C@H]1c1ccc(F)cc1Br` [Example 146], the EC50 was in the range of 1000 to 5000 nM.
As to `CCOC(=O)C1=C2[C@H](NS(C)(=O)=O)CCN2C(c2nccs2)=N[C@H]1c1ccc(F)cc1Br` [Example 147], the EC50 fell in the range of 1000 to 5000 nM.
In the case of `CCOC(=O)C1=C2C[C@H](NS(C)(=O)=O)CN2C(c2nccs2)=N[C@H]1c1ccc(F)c(F)c1` [Example 148], the EC50 is 100 to 500 nM.
Turning to `COC(=O)C1=C2C[C@H](NS(C)(=O)=O)CN2C(c2nccs2)=N[C@H]1c1ccc(F)cc1Cl` [Example 149], the EC50 is below 100 nM.
With `CCOC(=O)C1=C2C[C@H](NS(C)(=O)=O)CN2C(c2nccs2)=N[C@H]1c1ccc(Cl)cc1F` [Example 150], the EC50 was in the range of 100 to 500 nM.
For the molecule `CCOC(=O)C1=C2C[C@H](NS(C)(=O)=O)CN2C(c2nccs2)=N[C@H]1c1ccc(Cl)cc1Cl` [Example 151], the EC50 is below 100 nM.
In the case of `CC(C)OC(=O)C1=C2C[C@H](NS(C)(=O)=O)CN2C(c2nccs2)=N[C@H]1c1ccc(F)cc1Cl` [Example 152], the EC50 lay in the range of 100 to 500 nM.
With `CCOC(=O)C1=C2C[C@H](NS(=O)(=O)C(F)(F)F)CN2C(c2nccs2)=N[C@H]1c1ccc(F)cc1Cl` [Example 153], the EC50 was below 100 nM.
With `CCOC(=O)C1=C2C[C@H](NS(C)(=O)=O)CN2C(c2nncs2)=N[C@H]1c1ccc(F)cc1Cl` [Example 154], the EC50 was in the range of 100 to 500 nM.
`COC(=O)C1=C2C[C@H](NS(=O)(=O)C(F)(F)F)CN2C(c2nccs2)=N[C@H]1c1ccc(F)cc1Cl` [Example 155]: the EC50 is below 100 nM.
Same read-out and setting: the result for `COC(=O)C1=C2C[C@H](NS(=O)(=O)C3CC3)CN2C(c2nccs2)=N[C@H]1c1ccc(F)cc1Cl` [Example 156] reads below 100 nM; that for `CCOC(=O)C1=C2C[C@H](N(C)S(C)(=O)=O)CN2C(c2nccs2)=N[C@H]1c1ccc(F)cc1Cl` [Example 157], below 100 nM; that for `CCS(=O)(=O)N[C@H]1CC2=C(C(=O)OC)[C@H](c3ccc(F)cc3Cl)N=C(c3nccs3)N2C1` [Example 158], below 100 nM.
For the molecule `COC(=O)C1=C2C[C@H](NS(N)(=O)=O)CN2C(c2nccs2)=N[C@H]1c1ccc(F)cc1Cl` [Example 159], the EC50 was below 100 nM.
The same measure, in the same setting: the result for `CNS(=O)(=O)N[C@H]1CC2=C(C(=O)OC)[C@H](c3ccc(F)cc3Cl)N=C(c3nccs3)N2C1` [Example 160] reads below 100 nM; that for `COC(=O)C1=C2C[C@H](NS(=O)(=O)CCO)CN2C(c2nccs2)=N[C@H]1c1ccc(F)cc1Cl` [Example 161], below 100 nM; that for `COC(=O)C1=C2C[C@H](NC(C)=O)CN2C(c2nccs2)=N[C@H]1c1ccc(F)cc1Cl` [Example 162], 100 to 500 nM.
The same measure, in the same setting: the result for `COC(=O)N[C@H]1CC2=C(C(=O)OC)[C@H](c3ccc(F)cc3Cl)N=C(c3nccs3)N2C1` [Example 163] reads below 100 nM; that for `COC(=O)C1=C2C[C@H](NS(C)(=O)=O)CN2C(c2nccs2)=N[C@H]1c1ccc(F)c(Cl)c1` [Example 164], 1000 to 5000 nM.
